System: recombinant rabies virus 1088 strain expressing Gaussia Luciferase (GLuc) (1088/GLuc)
Assay type: cell-based
Details: read-out: Anti-rabies activity

| Structure (SMILES) | IC50 [µM] |
| --- | --- |
| NC(=O)C[C@@H]1[C@@H]2[C@@H]3CN[C@@]1(C(=O)NCCc1ccccc1)C[C@@H]3CN2Cc1ccc(F)cc1 (relative stereo) [IF-269] | 10 to 30 |
| CC(C)CCN1C[C@@H]2C[C@H]3CN[C@]2(C(=O)NCc2ccc(O)cc2)[C@@H]1[C@@H]3Cc1ccccc1 (relative stereo) [IB-577] | 10 to 30 |
| CC(C)CCN1CC2CC3(C(=O)NCCc4ccccc4)NCC2C1C3CC(C)C (stereo not shown) [IF-437] | 10 to 30 |
| CCCCCCNC(=O)[C@@]12C[C@@H]3CN(Cc4ccc(F)cc4)[C@@H]([C@@H]3CN1)[C@H]2CCCNC(=N)N (relative stereo) [IF-298] | 10 to 30 |
| CC(C)C[C@@H]1[C@@H]2[C@@H]3CN[C@@]1(C(=O)NCc1cccc4ccccc14)C[C@@H]3CN2CCO (relative stereo) [IF-542] | < 5 |
| Cc1ccc(CN2CC3CC4(C(=O)NCc5ccccc5)N=CC3C2C4CC(C)C)cc1 (stereo not shown) [IIF-86] | < 5 |
| CCCCCCNC(=O)[C@@]12C[C@@H]3CN(CC(N)=O)[C@@H]([C@@H]3CN1)[C@H]2CCc1ccccc1 (relative stereo) [IF-109] | 10 to 30 |
| CC(C)CN1C[C@H]2C[C@]3(C(=O)NCc4ccc(O)cc4)NC[C@H]2[C@H]1[C@H]3CCc1ccccc1 (relative stereo) [IF-576] | 10 to 30 |
| O=C(NCc1ccc(O)cc1)[C@@]12C[C@@H]3CN(Cc4ccc(F)cc4)[C@@H]([C@@H]3CN1)[C@H]2Cc1ccccc1 (relative stereo) [IF-481] | 10 to 30 |
| O=C(NCCO)[C@]12NC[C@@H]3C[C@H]1CN(CCc1ccccc1)[C@H]2[C@@H]3Cc1cccc2ccccc12 (relative stereo) [IB-593] | 10 to 30 |
| CC(C)C[C@@H]1[C@@H]2[C@@H]3CN[C@@]1(C(=O)NCc1ccc(O)cc1)C[C@@H]3CN2CCc1ccccc1 (relative stereo) [IF-470] | 10 to 30 |
| O=C(O)CCC1C2CNC3(C(=O)NCc4cccc5ccccc45)C(C2)CN(CC2CCCCC2)C13 (stereo not shown) [IB-389] | 10 to 30 |
| CC(C)CN1C[C@H]2C[C@]3(C(=O)NCc4ccccc4)NC[C@H]2[C@H]1[C@H]3CCc1ccccc1 (relative stereo) [IF-11] | 10 to 30 |
| CC(C)CC[C@@H]1[C@@H]2CN[C@@]3(C(=O)NCCc4ccccc4)[C@@H](C2)CN(Cc2ccc(O)cc2)[C@@H]13 (relative stereo) [IB-544] | 10 to 30 |
| CC(C)CCNC(=O)[C@@]12C[C@@H]3CN(CCO)[C@@H]([C@@H]3CN1)[C@H]2Cc1ccccc1 (relative stereo) [IF-656] | 10 to 30 |
| CC(C)CC1C2CNC3(C(=O)NCc4ccc5ccccc5c4)C(C2)CN(Cc2ccccc2)C13 (stereo not shown) [IB-879] | < 5 |
| CC(C)CCN1C[C@H]2C[C@]3(C(=O)NCc4ccccc4)NC[C@H]2[C@H]1[C@H]3CC(C)C (relative stereo) [IF-733] | < 5 |
| CC(C)NC(=O)[C@@]12C[C@@H]3CN(Cc4ccc(F)cc4)[C@@H]([C@@H]3CN1)[C@H]2CCCNC(=N)N (relative stereo) [IF-274] | 10 to 30 |
| NC(=O)C[C@@H]1[C@@H]2[C@@H]3CN[C@@]1(C(=O)NCc1ccc(O)cc1)C[C@@H]3CN2CC1CCCCC1 (relative stereo) [IF-247] | 10 to 30 |
| CCCCCCNC(=O)[C@@]12C[C@@H]3CN(CCC(C)C)[C@@H]([C@@H]3CN1)[C@H]2Cc1ccccc1 (relative stereo) [IF-599] | 10 to 30 |
| CC(C)C[C@@H]1[C@@H]2CN[C@@]3(C(=O)NCc4ccccc4)[C@@H](C2)CN(CC(C)C)[C@@H]13 (relative stereo) [IB-5] | 10 to 30 |

| Structure (SMILES) | IC50 [µM] |
| --- | --- |
| N=C(N)NCCC[C@@H]1[C@@H]2[C@@H]3CN[C@@]1(C(=O)NCc1ccc(F)cc1)C[C@@H]3CN2Cc1cccc2ccccc12 (relative stereo) [IF-245] | < 5 |
| CC(C)CNC(=O)[C@]12NC[C@@H]3C[C@H]1CN(CC(C)C)[C@H]2[C@@H]3CCCNC(=N)N (relative stereo) [IB-187] | 10 to 30 |
| CC(C)CNC(=O)C12CC3CN(CCC(=O)O)C(C3CN1)C2CCc1ccccc1 (stereo not shown) [IF-454] | 10 to 30 |
| CC(C)CCNC(=O)[C@@]12C[C@@H]3CN(Cc4ccccc4)[C@@H]([C@@H]3CN1)[C@H]2CC(C)C (relative stereo) [IF-691] | 10 to 30 |
| CC(C)CCNC(=O)[C@@]12C[C@@H]3CN(CCc4ccccc4)[C@@H]([C@@H]3CN1)[C@H]2Cc1ccc(O)cc1 (relative stereo) [IF-707] | < 5 |
| O=C(NCCc1ccccc1)[C@@]12C[C@@H]3CN(CC4CCCCC4)[C@@H]([C@@H]3CN1)[C@H]2Cc1ccccc1 (relative stereo) [IF-710] | < 5 |
| CC(C)CC1C2C3C=NC1(C(=O)NCc1ccccc1)CC3CN2Cc1ccc(Cl)cc1 (stereo not shown) [IIF-83] | < 5 |
| CCCCCCNC(=O)C12NCC3CC1CN(CCO)C2C3CCC(C)C (stereo not shown) [IB-490] | < 5 |
| O=C(NCc1ccc(F)cc1)C12NCC3CC1CN(CCO)C2C3Cc1ccccc1 (stereo not shown) [IB-479] | 10 to 30 |
| O=C(NCCO)[C@]12NC[C@@H]3C[C@H]1CN(Cc1ccc(F)cc1)[C@H]2[C@@H]3CCc1ccccc1 (relative stereo) [IB-669] | 10 to 30 |
| CC(C)CNC(=O)[C@]12NC[C@@H]3C[C@H]1CN(CCc1ccccc1)[C@H]2[C@@H]3Cc1ccc(O)cc1 (relative stereo) [IB-625] | 10 to 30 |
| O=C(O)CCNC(=O)[C@]12NC[C@@H]3C[C@H]1CN(CC1CCCCC1)[C@H]2[C@@H]3Cc1cccc2ccccc12 (relative stereo) [IB-614] | 10 to 30 |
| CC(C)C[C@@H]1[C@@H]2CN[C@@]3(C(=O)NCc4ccccc4)[C@@H](C2)CN(Cc2ccc(O)cc2)[C@@H]13 (relative stereo) [IB-787] | 10 to 30 |
| CC(C)CCNC(=O)[C@]12NC[C@@H]3C[C@H]1CN(CC(C)C)[C@H]2[C@@H]3Cc1ccccc1 (relative stereo) [IB-780] | < 5 |
| CC(C)CC1C2CNC3(C(=O)NCc4ccc(O)cc4)C(C2)CN(Cc2ccc(N(C)C)cc2)C13 (stereo not shown) [IB-892] | 10 to 30 |
| CC(C)CCNC(=O)[C@]12NC[C@@H]3C[C@H]1CN(Cc1ccc(O)cc1)[C@H]2[C@@H]3Cc1ccccc1 (relative stereo) [IB-574] | 10 to 30 |
| CC(C)CNC(=O)[C@@]12C[C@@H]3CN(CCc4ccccc4)[C@@H]([C@@H]3CN1)[C@H]2Cc1ccccc1 (relative stereo) [IF-641] | < 5 |
| CC(C)CCN1C[C@@H]2C[C@H]3CN[C@]2(C(=O)NCCO)[C@@H]1[C@@H]3Cc1cccc2ccccc12 (relative stereo) [IB-659] | < 5 |
| O=C(NCCO)[C@@]12C[C@@H]3CN(CC4CCCCC4)[C@@H]([C@@H]3CN1)[C@H]2Cc1ccccc1 (relative stereo) [IF-486] | 10 to 30 |
| CCCCCCNC(=O)C12NCC3CC1CN(CC(N)=O)C2C3CCc1ccccc1 (stereo not shown) [IB-109] | 10 to 30 |
| CC(C)CCN1C[C@@H]2C[C@H]3CN[C@]2(C(=O)NCCC(N)=O)[C@@H]1[C@@H]3CCc1ccccc1 (relative stereo) [IB-636] | 10 to 30 |

| Structure (SMILES) | IC50 [µM] |
| --- | --- |
| CC(C)NC(=O)[C@@]12C[C@@H]3CN(Cc4cccc5ccccc45)[C@@H]([C@@H]3CN1)[C@H]2CCc1ccccc1 (relative stereo) [IF-789] | 10 to 30 |
| NC(=O)CCNC(=O)C12NCC3CC1CN(Cc1cccc4ccccc14)C2C3Cc1ccc(O)cc1 (stereo not shown) [IB-521] | 10 to 30 |
| CC(C)C[C@@H]1[C@@H]2CN[C@@]3(C(=O)NCCO)[C@@H](C2)CN(CC2CCCCC2)[C@@H]13 (relative stereo) [IB-646] | 10 to 30 |
| O=C(NCCO)[C@@]12C[C@@H]3CN(Cc4cccc5ccccc45)[C@@H]([C@@H]3CN1)[C@H]2Cc1cccc2ccccc12 (relative stereo) [IF-614] | 10 to 30 |
| NC(=O)CN1CC2CC3CNC2(C(=O)NCCc2ccccc2)C1C3Cc1ccccc1 (stereo not shown) [IB-87] | < 5 |
| CCCCCCNC(=O)[C@]12NC[C@@H]3C[C@H]1CN(CCc1ccccc1)[C@H]2[C@@H]3CCCNC(=N)N (relative stereo) [IB-256] | 10 to 30 |
| CC(C)CC1C2CNC3(C(=O)NCc4ccccc4)C(C2)CN(Cc2ccc(Cl)cc2)C13 (stereo not shown) [IB-864] | 5 to 10 |
| N=C(N)NCCCNC(=O)[C@]12NC[C@@H]3C[C@H]1CN(Cc1cccc4ccccc14)[C@H]2[C@@H]3Cc1ccccc1 (relative stereo) [IB-351] | 10 to 30 |
| O=C(NCc1ccc(O)cc1)[C@@]12C[C@@H]3CN(CC4CCCCC4)[C@@H]([C@@H]3CN1)[C@H]2Cc1ccccc1 (relative stereo) [IF-477] | < 5 |
| O=C(NCc1ccc(O)cc1)C12NCC3CC1CN(Cc1cccc4ccccc14)C2C3Cc1cccc2ccccc12 (stereo not shown) [IB-417] | 10 to 30 |
| CC(C)CCNC(=O)[C@]12NC[C@@H]3C[C@H]1CN(CC(C)C)[C@H]2[C@@H]3Cc1ccc(O)cc1 (relative stereo) [IB-684] | 10 to 30 |
| CC(C)CCN1C[C@H]2C[C@]3(C(=O)NCc4cccc(Cl)c4)N=C[C@H]2[C@H]1[C@H]3Cc1ccccc1 (relative stereo) [IIF-325] | < 5 |
| CC(C)NC(=O)[C@@]12C[C@@H]3CN(Cc4cccc5ccccc45)[C@@H]([C@@H]3CN1)[C@H]2Cc1cccc2ccccc12 (relative stereo) [IF-596] | 10 to 30 |
| N=C(N)NCCCNC(=O)[C@]12NC[C@@H]3C[C@H]1CN(Cc1ccccc1)[C@H]2[C@@H]3CCc1ccccc1 (relative stereo) [IB-279] | 10 to 30 |
| CC(C)CN1C[C@H]2C[C@]3(C(=O)NCc4ccccc4)NC[C@H]2[C@H]1[C@H]3Cc1ccccc1 (relative stereo) [IF-1, (3S*, 3aS*, 6S*, 7R*, 7aS*) -N, 7-dibenzyl-1-isobutyloctahydro-6H-3,6-methanopyrrolo[3,2-c]pyridine-6-carboxamide] | 10 to 30 |
| CC(C)CCN1C[C@H]2C[C@]3(C(=O)NCc4cccc5ccccc45)NC[C@H]2[C@H]1[C@H]3CC(C)C (relative stereo) [IF-705] | < 5 |
| CC(C)C[C@@H]1[C@@H]2[C@@H]3CN[C@@]1(C(=O)NCc1ccccc1)C[C@@H]3CN2CCc1ccccc1 (relative stereo) [IF-639] | < 5 |
| NC(=O)CC1C2C3CNC1(C(=O)NCc1cccc4ccccc14)CC3CN2CCc1ccccc1 (stereo not shown) [IF-223] | 10 to 30 |
| CC(C)CCN1C[C@@H]2C[C@H]3CN[C@]2(C(=O)NCc2ccc(F)cc2)[C@@H]1[C@@H]3CC(C)C (relative stereo) [IB-553] | < 5 |

Same assay, conditions: read-out: IC50

| Structure (SMILES) | IC50 [µM] |
| --- | --- |
| CC(C)CN1C[C@H]2C[C@]3(C(=O)NCc4ccccc4)NC[C@H]2[C@H]1[C@H]3CCc1ccccc1 (relative stereo) [IF-11] | 17.5 |
| CC(C)C[C@@H]1[C@@H]2CN[C@@]3(C(=O)NCc4ccccc4)[C@@H](C2)CN(CC(C)C)[C@@H]13 (relative stereo) [IB-5] | 18.2 |
| CC(C)CN1C[C@H]2C[C@]3(C(=O)NCc4ccccc4)NC[C@H]2[C@H]1[C@H]3Cc1ccccc1 (relative stereo) [IF-1, (3S*, 3aS*, 6S*, 7R*, 7aS*) -N, 7-dibenzyl-1-isobutyloctahydro-6H-3,6-methanopyrrolo[3,2-c]pyridine-6-carboxamide] | 12.6 |

— patent EP4104902B1, “COMPOUNDS AND M[…] SAME” (priority 2020, dated 2021)
